Measured values from patent US20210015793A1, “COMPOUNDS FOR TREATING CNS- AND NEURODEGENERATIVE DISEASES” (ETH ZURICH, priority 2018, published 2021).

Columns and labels:
Tg2576 AD mice = assay: SDS-insoluble hippocampal Abeta1-40 and Abeta1-42 by sandwich ELISA in Tg2576 mice; assay type: in vivo, mouse; conditions: 18 months-old Tg2576 mice, 6 months of treatment, 8 mg/kg/d in drinking water
Experimental: (§1) For quantitative analysis of SDS-insoluble hippocampal contents of Abeta1-40 and Abeta1-42, hippocampi were dissected out from brains isolated on ice from 18-month-old Tg2576 mice without and with treatment for 6 months with Compound-1 and Compound-4. Isolated hippocampi were pulverized under liquid nitrogen, and SDS-insoluble Abeta peptides were extracted by serial extraction in 14 microL/mg wet weight of Tris buffer (50 mM Tris, 200 nM NaCl, 2 mM EDTA, pH 7.2, supplemented with 1× protease inhibitors/1× phosphatase inhibitors), followed by extraction with Triton X-100-containing buffer (Tris extraction buffer with 0.1% Triton X-100), and followed by extraction with 2% SDS. The remaining pellet was extracted with formic acid (70% formic acid in Tris buffer supplemented with 1× protease inhibitors/1× phosphatase inhibitors). The resulting formic-acid extract was neutralized with 1 M Tris buffer, pH 11, and used for quantitative determination of Abeta1-40 and Abeta1-42 by sandwich ELISA relative to a standard curve according to the protocol of the manufacturer (KHB3481 and KHB3441, Thermo Fisher Scientific, Waltham, Mass., USA).
as §1, with “mM” for “nM”, “and with” for “relative to”

[1] = Serum concentration by HPLC in dogs after oral dosing; assay type: in vivo, dog; conditions: for steady-state serum concentrations of Compound-1 and Compound-1F compared: 28 days once daily oral dosing, 24 h after the last dose; for oral bioavailability: oral treatment; for dog dose roughly equivalent to 8 mg/kg/day in mice (by steady-state serum concentration): mice given compound in drinking water, dogs 28 days once daily oral dosing
Experimental: Dog serum concentrations of Compound-1, Compound-1F and Compound-4 were determined with serum isolated from the blood of German shepherd dogs (age: 8-9 months) taken at different time points (2 h, 4 h, 6 h, 8, 10 h, 24 h) after oral drug intake. The steady-state serum concentrations of Compound-1, Compound-1F and Compound-4 were determined in mice with blood isolated at the end of the study by cardiac puncture. Serum proteins were removed by acetonitrile precipitation, and compounds were extracted by chloroform before separation on an HPLC-C18 column (Poroshell 120 EC-C18, Agilent) with an HPLC system (Agilent 1100 Series) and detection at OD 280 nm, for Compound-1 and Compound-1F. Detection of Compound-4 was performed at OD 310 nm. The same extraction method was also used to determine Compound-1F in the serum of healthy human research participants. Dog hematology and biochemical parameters were determined by the Center of Applied Analytical and Veterinary Studies, Cairo, Egypt. ECG and blood pressure were measured by Dr. Mohamed Elsaed, Electrocardiography Unit, Faculty of Veterinary Medicine, Cairo University. The study was approved by the ethical committee of the Center of Applied and Veterinary Studies, Cairo, Egypt. Clinical laboratory parameters of human research participants were determined by the Rabaa El Adaweya Medical Central Hospital, Cairo, Egypt.

male B6 mice = assay: Aging-induced deterioration of male sperm quality in B6 mice; assay type: in vivo, mouse; conditions: 18-month-old male B6 mice, 15 months treatment
[2] = dogs, oral gavage, single dose of 60 mg

| Structure (SMILES) | hippocampal content of Abeta1-40 (Tg2576 AD mice) | hippocampal content of Abeta1-42 (Tg2576 AD mice) | steady-state serum concentrations of Compound-1 and Compound-1F compared ([1]; dogs) | dose dependence of peak serum concentration ([1]; dogs, 28 days repeated once daily dosing, 20, 60, 200 mg/day) | time to peak serum concentration ([1]; dogs, day 28 of repeated once daily dosing, 20, 60 and 200 mg/day) | peak serum concentration [1, 2] | time to peak serum concentration [1, 2] | time to peak serum concentration ([1]; dogs, oral gavage, single dose of 200 mg) | oral bioavailability ([1]; dogs) | dog dose roughly equivalent to 8 mg/kg/day in mice (by steady-state serum concentration) [1] | aging-induced epididymal degeneration (H&E sections of cauda epididymis) (male B6 mice) | pharmacokinetic profile compared to Compound-1 ([1]; dogs, oral) |
| --- | --- | --- | --- | --- | --- | --- | --- | --- | --- | --- | --- | --- |
| O=C(C1=C(O)C(c2ccccc2)N(c2ccc3c(c2)OCO3)C1=O)C1CC1 (stereo not drawn) [Compound-1, 1-(1,3-benzodioxol-5-yl)-4-(cyclopropane-carbonyl)-3-hydroxy-2-phenyl-2H-pyrrol-5-one] | significantly decreased | significantly decreased | comparable | dose-dependent increase in the peak serum concentration | 4 h | 2 µg/mL | 4 h | 6 h | good oral bioavailability | ~0.7 mg/kg day | prevented | – |
| O=C(C1=C(O)C(c2ccc(F)cc2)N(c2ccc3c(c2)OCO3)C1=O)C1CC1 (stereo not drawn) [Compound-1F, 1-(1,3-Benzodioxol-5-yl)-4-(cyclopropanecarbonyl)-2-(4-fluorophenyl)-3-hydroxy-2H-pyrrol-5-one] | significantly decreased | significantly decreased | comparable | – | – | – | – | – | good oral bioavailability | ~0.7 mg/kg day | prevented | slower on-rate |
